Reference: patent US10597388B2, “Pyridazinone herbicides” (FMC CORPORATION, priority 2014, dated 2020)

Key:
Format in all cases: in vivo
[1] = test system: foxtail, giant (giant foxtail, Setaria faberii); test: Test C greenhouse herbicide test, pre- and postemergence
Method in brief: (§1)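 Greenhouse pots; pre-em on seeded loam:sand blend, post-em on 2–18 cm plants (1–4 leaf) in sphagnum peat/vermiculite medium. Formulation: non-phytotoxic solvent + surfactant. Read-out: visual % control (0–100) vs controls at 13–15 d.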

[2] = test system: corn (Zea mays); test: as above
Method in brief: as §1

[3] = test system: barnyardgrass (Echinochloa crus-galli); test: as above
Method in brief: as §1

[4] = test system: blackgrass (Alopecurus myosuroides); test: as above
Method in brief: as §1

[5] = test system: crabgrass, large (large crabgrass, Digitaria sanguinalis); test: as above
Method in brief: as §1

[6] = test system: ragweed (common ragweed, Ambrosia elatior); test: as above
Method in brief: as §1

[7] = test system: pigweed (Amaranthus retroflexus); test: as above
Method in brief: as §1

[8] = test system: wheat (winter wheat, Triticum aestivum); test: as above
Method in brief: as §1

[9] = test system: waterhemp (common waterhemp, Amaranthus rudis); test: as above
Method in brief: as §1

[10] = test system: oilseed rape (Brassica napus); test: as above
Method in brief: as §1

[11] = test system: galium (catchweed bedstraw, Galium aparine); test: as above
Method in brief: as §1

[12] = test system: morningglory (Ipomoea coccinea); test: as above
Method in brief: as §1

[13] = test system: velvetleaf (Abutilon theophrasti); test: as above
Method in brief: as §1

[14] = test system: johnsongrass (Sorghum halepense); test: as above
Method in brief: as §1

[15] = test system: soybean (Glycine max); test: as above
Method in brief: as §1

[16] = test system: kochia (Kochia scoparia); test: Test C greenhouse herbicide test, postemergence
Method in brief: (§2)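 Plants grown in potting mix of peat moss, vermiculite, wetting agent and starter nutrients were sprayed postemergence at 2 to 18 cm height (1- to 4-leaf stage). After 13 to 15 d in the greenhouse, injury was visually rated against untreated controls on a 0–100 scale (0 no effect, 100 complete control).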

[17] = test system: oat, wild (wild oat, Avena fatua); test: Test C greenhouse herbicide test, postemergence
Method in brief: as §2

[18] = Postemergence, 31 g ai/ha, scale 0 to 100 (0 no effect, 100 complete control)
[19] = Postemergence, 62 g ai/ha, 0 to 100 scale (0 no effect, 100 complete control)
[20] = Postemergence, 250 g ai/ha, scale 0 to 100, 0 no effect, 100 complete control, 13 to 15 d
[21] = Preemergence, 31 g ai/ha, scale 0 to 100, 0 is no effect, 100 is complete control
[22] = Preemergence, 62 g ai/ha, scale 0 to 100, 0 is no effect, 100 is complete control
[23] = Preemergence, 125 g ai/ha, scale 0 to 100, 0 is no effect, 100 is complete control
[24] = Preemergence, 250 g ai/ha, scale 0 to 100 (0 no effect, 100 complete control)
[25] = postemergence, 125 g ai/ha, scale 0 to 100, 0 no effect, 100 complete control

COc1nn(C)c(=O)c(-c2c(C)ccc3ccccc23)c1OC(C)=O [Compound 138]
Plant response rating, Foxtail, Giant [1, 18]: 35 | Foxtail, Giant plant response rating [1, 19]: 60 | Plant response rating, Foxtail, Giant [1, 20]: 80 | Plant response rating, Foxtail, Giant [1, 21]: 80 | Plant response rating, Foxtail, Giant [1, 22]: 85 | Plant response rating, Foxtail, Giant [1, 23]: 100 | Foxtail, Giant plant response rating [1, 24]: 100 | Foxtail, Giant plant response rating [1, 25]: 65 | Plant response rating, Corn [2, 18]: 0 | Corn plant response rating [2, 19]: 0 | Plant response rating, Corn [2, 20]: 15 | Plant response rating, Corn [2, 21]: 5 | Plant response rating, Corn [2, 22]: 5 | Plant response rating, Corn [2, 23]: 5 | Corn plant response rating [2, 24]: 15 | Corn plant response rating [2, 25]: 15 | Plant response rating, Barnyardgrass [3, 18]: 25 | Barnyardgrass plant response rating [3, 19]: 25 | Plant response rating, Barnyardgrass ([3]; Postemergence, 125 g ai/ha, scale 0 to 100, 0 is no effect, 100 is complete control): 30 | Plant response rating, Barnyardgrass [3, 20]: 40 | Plant response rating, Barnyardgrass [3, 21]: 30 | Plant response rating, Barnyardgrass [3, 22]: 55 | Plant response rating, Barnyardgrass [3, 23]: 90 | Barnyardgrass plant response rating [3, 24]: 98 | Plant response rating, Blackgrass [4, 18]: 5 | Blackgrass plant response rating [4, 19]: 5 | Plant response rating, Blackgrass [4, 20]: 80 | Plant response rating, Blackgrass [4, 21]: 45 | Plant response rating, Blackgrass [4, 22]: 55 | Plant response rating, Blackgrass [4, 23]: 40 | Blackgrass plant response rating [4, 24]: 90 | Blackgrass plant response rating [4, 25]: 50 | Plant response rating, Crabgrass, Large [5, 18]: 15 | Crabgrass, Large plant response rating [5, 19]: 20 | Plant response rating, Crabgrass, Large [5, 20]: 25 | Plant response rating, Crabgrass, Large [5, 21]: 0 | Plant response rating, Crabgrass, Large [5, 22]: 40 | Plant response rating, Crabgrass, Large [5, 23]: 70 | Crabgrass, Large plant response rating [5, 24]: 80 | Crabgrass, Large plant response rating [5, 25]: 20 | Plant response rating, Ragweed [6, 18]: 0 | Ragweed plant response rating [6, 19]: 0 | Plant response rating, Ragweed [6, 20]: 5 | Plant response rating, Ragweed [6, 21]: 95 | Plant response rating, Ragweed [6, 22]: 100 | Plant response rating, Ragweed [6, 23]: 98 | Ragweed plant response rating [6, 24]: 95 | Ragweed plant response rating [6, 25]: 5 | Plant response rating, Pigweed [7, 18]: 80 | Pigweed plant response rating [7, 19]: 85 | Plant response rating, Pigweed [7, 20]: 98 | Plant response rating, Pigweed [7, 21]: 100 | Plant response rating, Pigweed [7, 22]: 98 | Plant response rating, Pigweed [7, 23]: 100 | Pigweed plant response rating [7, 24]: 100 | Pigweed plant response rating [7, 25]: 90 | Plant response rating, Wheat [8, 18]: 60 | Wheat plant response rating [8, 19]: 40 | Plant response rating, Wheat [8, 20]: 90 | Plant response rating, Wheat [8, 21]: 0 | Plant response rating, Wheat [8, 22]: 35 | Plant response rating, Wheat [8, 23]: 5 | Wheat plant response rating [8, 24]: 5 | Wheat plant response rating [8, 25]: 80 | Plant response rating, Waterhemp [9, 18]: 90 | Waterhemp plant response rating [9, 19]: 95 | Plant response rating, Waterhemp [9, 20]: 100 | Plant response rating, Waterhemp [9, 21]: 95 | Plant response rating, Waterhemp [9, 22]: 100 | Plant response rating, Waterhemp [9, 23]: 98 | Waterhemp plant response rating [9, 24]: 100 | Waterhemp plant response rating [9, 25]: 98 | Plant response rating, Oilseed Rape [10, 18]: 95 | Oilseed Rape plant response rating [10, 19]: 98 | Plant response rating, Oilseed Rape [10, 20]: 98 | Plant response rating, Oilseed Rape [10, 21]: 85 | Plant response rating, Oilseed Rape [10, 22]: 90 | Plant response rating, Oilseed Rape [10, 23]: 90 | Oilseed Rape plant response rating [10, 24]: 100 | Oilseed Rape plant response rating [10, 25]: 98 | Plant response rating, Galium [11, 18]: 90 | Galium plant response rating [11, 19]: 90 | Plant response rating, Galium [11, 20]: 95 | Plant response rating, Galium [11, 21]: 95 | Plant response rating, Galium [11, 22]: 98 | Plant response rating, Galium [11, 23]: 98 | Galium plant response rating [11, 24]: 98 | Galium plant response rating [11, 25]: 95 | Plant response rating, Morningglory [12, 18]: 98 | Morningglory plant response rating [12, 19]: 100 | Plant response rating, Morningglory [12, 20]: 100 | Plant response rating, Morningglory [12, 21]: 80 | Plant response rating, Morningglory [12, 22]: 90 | Plant response rating, Morningglory [12, 23]: 98 | Morningglory plant response rating [12, 24]: 98 | Morningglory plant response rating [12, 25]: 98 | Plant response rating, Velvetleaf [13, 18]: 85 | Velvetleaf plant response rating [13, 19]: 90 | Plant response rating, Velvetleaf [13, 20]: 98 | Plant response rating, Velvetleaf [13, 21]: 85 | Plant response rating, Velvetleaf [13, 22]: 90 | Plant response rating, Velvetleaf [13, 23]: 98 | Velvetleaf plant response rating [13, 24]: 100 | Velvetleaf plant response rating [13, 25]: 95 | Plant response rating, Johnsongrass [14, 18]: 10 | Johnsongrass plant response rating [14, 19]: 10 | Plant response rating, Johnsongrass [14, 20]: 20 | Plant response rating, Johnsongrass [14, 21]: 10 | Plant response rating, Johnsongrass [14, 22]: 15 | Plant response rating, Johnsongrass [14, 23]: 30 | Johnsongrass plant response rating [14, 24]: 20 | Johnsongrass plant response rating [14, 25]: 20 | Plant response rating, Soybean [15, 18]: 10 | Soybean plant response rating [15, 19]: 10 | Plant response rating, Soybean [15, 20]: 25 | Plant response rating, Soybean [15, 21]: 0 | Plant response rating, Soybean [15, 22]: 0 | Plant response rating, Soybean [15, 23]: 20 | Soybean plant response rating [15, 24]: 15 | Soybean plant response rating [15, 25]: 10 | Plant response rating, Kochia [16, 18]: 90 | Kochia plant response rating [16, 19]: 95 | Plant response rating, Kochia [16, 20]: 100 | Kochia plant response rating [16, 25]: 100 | Plant response rating, Oat, Wild [17, 18]: 50 | Oat, Wild plant response rating [17, 19]: 80 | Plant response rating, Oat, Wild [17, 20]: 90 | Oat, Wild plant response rating [17, 25]: 80
